From patent publication US6458585B1, “Cytokine-free culture of dendritic cells” (Nexell Therapeutics Inc., priority 1996, dated 2002)

Tests used:
adherent PBMNC = assay: DC morphology (Wright-Geimsa) of plastic adherent cells cultured with non-cytokine additives; assay type: cell-based, human
T cells = assay: Allogeneic MLR with bulk PBMNC cultures grown with non-cytokine additives; assay type: cell-based, human
Method: MLR's were setup using T cells as responders and dendritic cell enriched cultures as antigen presenters. Sheep red blood cells were prepared and used to erythrocyte rosette T cells from a MNC preparation as described in “Current Protocols in Immunology”, John Wiley & Sons Inc, 1995. Vol. 2, 7.2.1-7.2.4. Erythrocyte+(E+ ) T cells were resuspended to 1×10^6 cells/ml in RPMI 1640/10% FCS. Dendritic cells were resuspended to 1×10^6 cells/ml in RPMI 1640/10% FCS and mitomycin C was added at 25 ug/ml to inhibit proliferation. The tubes were incubated at 37° C. for 30 min. then washed 3 times with PBS-CMF/1% HA. […] […] The appropriate control wells were also prepared. Plates were incubated for 4 or 5 days at 37° C.
Each well was pulsed with 1 uCi of ^3H-thymidine in RPMI 1640/10% FCS. Plates were incubated overnight at 37° C.
Plates were harvested onto glass fiber filter strips using a cell harvester. Discs were placed into scintillation vials containing scintillation cocktail and samples were counted using a beta radiation counter.
Cytospin slide preparation, Wright-Geimsa and immunohistochemical staining of the cultured cells were conducted as described in Example 1 and 2 above. Mixed lymphocyte reactions (MLR's) were setup using T cells (responders) and dendritic cell enriched cultures (stimulators) from bulk PBMNC cultures, as described above in Example 1.
The functional capacity of cultured cells to induce T cell proliferation was measured in an allogeneic MLR. […] At the greatest ratio of 1:100, the differences in capacity to induce T cell proliferation is marginal between the GM-CSF/IL-4 cultured cells and the non-cytofine additive cultured cells.

CCCCC/C=C\C/C=C\CCCCCCCC(=O)O [Linoleic Acid]
% DC (adherent PBMNC; Day 4, with GM-CSF present): 8.00%
% DC (adherent PBMNC; Day 4, without GM-CSF): 3.00%
% DC (adherent PBMNC; Day 7, with GM-CSF present): 9.00%
% DC (adherent PBMNC; Day 7, without GM-CSF): 6.00%
morphologically identified DC (adherent PBMNC; day 7, without GM-CSF added to additives): next highest percentages
Allogeneic MLR. Increase Over Background Proliferation (T cells; Day 7, Cell Culture:T cell Ratio 1:1): 6.1
Allogeneic MLR. Increase Over Background Proliferation (T cells; Day 7, Cell Culture:T cell Ratio 1:10): 3.1
Allogeneic MLR. Increase Over Background Proliferation (T cells; Day 7, Cell Culture:T cell Ratio 1:100): 1.1
